In US8192962B2, “Processes for detecting toxic substances” (Daikin Industries, Ltd., priority 2001, dated 2012):

Tested on: Metabolism protein genes
Test: DNA chip mRNA expression in yeast, metabolism protein genes (Table 7)
Type: cell-based, Saccharomyces cerevisiae S288C
Method in brief: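 In this screen, yeast in logarithmic growth are challenged for two hours with a toxic substance at a non-lethal inhibitory concentration. Their mRNA, converted to Cy3- or Cy5-labeled cDNA, hybridizes at 65° C. to a chip spanning every yeast gene, and expression is expressed as a ratio to untreated cells.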

C[S+](C)[O-] [(15), dimethylsulfoxide]
0.8: level of expressed mRNA in the presence/in the absence of chemical substance (yeast gene YMR261C) | The level of expressed mRNA in the presence of chemical substance/The level of expressed mRNA in the absence of chemical substance (yeast gene YNL045W) | level of expressed mRNA in the presence/in the absence of chemical substance (yeast gene YOR176W)
0.6: level of expressed mRNA in the presence/in the absence of chemical substance (yeast gene YKL148C) | level of expressed mRNA in the presence/in the absence of chemical substance (yeast gene YML022W) | level of expressed mRNA in the presence/in the absence of chemical substance (yeast gene YMR011W) | The level of expressed mRNA in the presence of chemical substance/The level of expressed mRNA in the absence of chemical substance (yeast gene YMR271C) | level of expressed mRNA in the presence/in the absence of chemical substance (yeast gene YOR251C) | The level of expressed mRNA in the presence of chemical substance/The level of expressed mRNA in the absence of chemical substance (yeast gene YOR336W) | level of expressed mRNA in the presence/in the absence of chemical substance (yeast gene YPL028W) | level of expressed mRNA in the presence/in the absence of chemical substance (yeast gene YPL148C)
0.7: level of expressed mRNA in the presence/in the absence of chemical substance (yeast gene YLR081W) | level of expressed mRNA in the presence/in the absence of chemical substance (yeast gene YLR372W) | level of expressed mRNA in the presence/in the absence of chemical substance (yeast gene YOL116W) | level of expressed mRNA in the presence/in the absence of chemical substance (yeast gene YOR108W)
1.3: level of expressed mRNA in the presence/in the absence of chemical substance (yeast gene YMR083W) | The level of expressed mRNA in the presence of chemical substance/The level of expressed mRNA in the absence of chemical substance (yeast gene YNR033W)
2.3: The level of expressed mRNA in the presence of chemical substance/The level of expressed mRNA in the absence of chemical substance (yeast gene YNL331C)
2.4: The level of expressed mRNA in the presence of chemical substance/The level of expressed mRNA in the absence of chemical substance (yeast gene YLR348C) | level of expressed mRNA in the presence/in the absence of chemical substance (yeast gene YLR354C)
37.3: level of expressed mRNA in the presence/in the absence of chemical substance (yeast gene YMR323W)
1.5: level of expressed mRNA in the presence/in the absence of chemical substance (yeast gene YJR077C) | level of expressed mRNA in the presence/in the absence of chemical substance (yeast gene YLR058C) | The level of expressed mRNA in the presence of chemical substance/The level of expressed mRNA in the absence of chemical substance (yeast gene YLR299W) | level of expressed mRNA in the presence/in the absence of chemical substance (yeast gene YOL108C) | level of expressed mRNA in the presence/in the absence of chemical substance (yeast gene YOR002W) | level of expressed mRNA in the presence/in the absence of chemical substance (yeast gene YPL135W)
5.4: The level of expressed mRNA in the presence of chemical substance/The level of expressed mRNA in the absence of chemical substance (yeast gene YNL332W)
3.9: The level of expressed mRNA in the presence of chemical substance/The level of expressed mRNA in the absence of chemical substance (yeast gene YLR307W)
1.4: The level of expressed mRNA in the presence of chemical substance/The level of expressed mRNA in the absence of chemical substance (yeast gene YJL099W) | level of expressed mRNA in the presence/in the absence of chemical substance (yeast gene YNL025C) | The level of expressed mRNA in the presence of chemical substance/The level of expressed mRNA in the absence of chemical substance (yeast gene YOL126C) | level of expressed mRNA in the presence/in the absence of chemical substance (yeast gene YOR103C)
5.6: The level of expressed mRNA in the presence of chemical substance/The level of expressed mRNA in the absence of chemical substance (yeast gene YMR189W)
3.3: The level of expressed mRNA in the presence of chemical substance/The level of expressed mRNA in the absence of chemical substance (yeast gene YKL104C) | The level of expressed mRNA in the presence of chemical substance/The level of expressed mRNA in the absence of chemical substance (yeast gene YNL106C)
1.6: level of expressed mRNA in the presence/in the absence of chemical substance (yeast gene YJL167W) | level of expressed mRNA in the presence/in the absence of chemical substance (yeast gene YKL060C) | level of expressed mRNA in the presence/in the absence of chemical substance (yeast gene YLR304C) | The level of expressed mRNA in the presence of chemical substance/The level of expressed mRNA in the absence of chemical substance (yeast gene YNL012W) | The level of expressed mRNA in the presence of chemical substance/The level of expressed mRNA in the absence of chemical substance (yeast gene YNR019W) | level of expressed mRNA in the presence/in the absence of chemical substance (yeast gene YOL086C) | level of expressed mRNA in the presence/in the absence of chemical substance (yeast gene YOR128C) | level of expressed mRNA in the presence/in the absence of chemical substance (yeast gene YOR348C)
1.1: level of expressed mRNA in the presence/in the absence of chemical substance (yeast gene YJR143C) | The level of expressed mRNA in the presence of chemical substance/The level of expressed mRNA in the absence of chemical substance (yeast gene YKL091C) | The level of expressed mRNA in the presence of chemical substance/The level of expressed mRNA in the absence of chemical substance (yeast gene YKL213C) | The level of expressed mRNA in the presence of chemical substance/The level of expressed mRNA in the absence of chemical substance (yeast gene YML054C) | level of expressed mRNA in the presence/in the absence of chemical substance (yeast gene YOR142W) | level of expressed mRNA in the presence/in the absence of chemical substance (yeast gene YOR178C) | level of expressed mRNA in the presence/in the absence of chemical substance (yeast gene YPL057C)
2.7: The level of expressed mRNA in the presence of chemical substance/The level of expressed mRNA in the absence of chemical substance (yeast gene YLR300W) | The level of expressed mRNA in the presence of chemical substance/The level of expressed mRNA in the absence of chemical substance (yeast gene YOL058W)
1.9: level of expressed mRNA in the presence/in the absence of chemical substance (yeast gene YOL156W)
2.5: The level of expressed mRNA in the presence of chemical substance/The level of expressed mRNA in the absence of chemical substance (yeast gene YLR180W) | The level of expressed mRNA in the presence of chemical substance/The level of expressed mRNA in the absence of chemical substance (yeast gene YNL104C)
1.7: level of expressed mRNA in the presence/in the absence of chemical substance (yeast gene YKR034W) | level of expressed mRNA in the presence/in the absence of chemical substance (yeast gene YLR089C)
1.2: The level of expressed mRNA in the presence of chemical substance/The level of expressed mRNA in the absence of chemical substance (yeast gene YJL172W) | level of expressed mRNA in the presence/in the absence of chemical substance (yeast gene YJL216C) | level of expressed mRNA in the presence/in the absence of chemical substance (yeast gene YKL157W) | level of expressed mRNA in the presence/in the absence of chemical substance (yeast gene YMR015C) | The level of expressed mRNA in the presence of chemical substance/The level of expressed mRNA in the absence of chemical substance (yeast gene YOL153C) | The level of expressed mRNA in the presence of chemical substance/The level of expressed mRNA in the absence of chemical substance (yeast gene YOR136W)
0.9: The level of expressed mRNA in the presence of chemical substance/The level of expressed mRNA in the absence of chemical substance (yeast gene YKL215C) | level of expressed mRNA in the presence/in the absence of chemical substance (yeast gene YLR006C) | level of expressed mRNA in the presence/in the absence of chemical substance (yeast gene YLR056W) | The level of expressed mRNA in the presence of chemical substance/The level of expressed mRNA in the absence of chemical substance (yeast gene YML070W) | The level of expressed mRNA in the presence of chemical substance/The level of expressed mRNA in the absence of chemical substance (yeast gene YMR105C) | level of expressed mRNA in the presence/in the absence of chemical substance (yeast gene YMR205C) | The level of expressed mRNA in the presence of chemical substance/The level of expressed mRNA in the absence of chemical substance (yeast gene YNL037C) | The level of expressed mRNA in the presence of chemical substance/The level of expressed mRNA in the absence of chemical substance (yeast gene YNL231C) | level of expressed mRNA in the presence/in the absence of chemical substance (yeast gene YPR165W) | The level of expressed mRNA in the presence of chemical substance/The level of expressed mRNA in the absence of chemical substance (yeast gene YPR167C) | level of expressed mRNA in the presence/in the absence of chemical substance (yeast gene YPR183W)
2.1: level of expressed mRNA in the presence/in the absence of chemical substance (yeast gene YNL192W)
2.2: level of expressed mRNA in the presence/in the absence of chemical substance (yeast gene YLR044C)
1.0: level of expressed mRNA in the presence/in the absence of chemical substance (yeast gene YJL121C) | The level of expressed mRNA in the presence of chemical substance/The level of expressed mRNA in the absence of chemical substance (yeast gene YJR137C) | The level of expressed mRNA in the presence of chemical substance/The level of expressed mRNA in the absence of chemical substance (yeast gene YKL035W) | level of expressed mRNA in the presence/in the absence of chemical substance (yeast gene YLR284C) | The level of expressed mRNA in the presence of chemical substance/The level of expressed mRNA in the absence of chemical substance (yeast gene YNR002C) | The level of expressed mRNA in the presence of chemical substance/The level of expressed mRNA in the absence of chemical substance (yeast gene YNR059W) | The level of expressed mRNA in the presence of chemical substance/The level of expressed mRNA in the absence of chemical substance (yeast gene YOL143C) | The level of expressed mRNA in the presence of chemical substance/The level of expressed mRNA in the absence of chemical substance (yeast gene YOR130C) | The level of expressed mRNA in the presence of chemical substance/The level of expressed mRNA in the absence of chemical substance (yeast gene YPL017C) | level of expressed mRNA in the presence/in the absence of chemical substance (yeast gene YPR113W)
6.7: The level of expressed mRNA in the presence of chemical substance/The level of expressed mRNA in the absence of chemical substance (yeast gene YMR296C)
1.8: The level of expressed mRNA in the presence of chemical substance/The level of expressed mRNA in the absence of chemical substance (yeast gene YKL152C) | level of expressed mRNA in the presence/in the absence of chemical substance (yeast gene YOR085W)
